Measured values: ChEMBL document CHEMBL3526155, “Endoxifen, the active metabolite of tamoxifen, is a substrate of the efflux transporter P-glycoprotein (multidrug resistance 1)” (Drug Metab Dispos, 2011)

Assays:
MDR1 (ABCB1) [1] = target: T1, MDR1 (ABCB1) (Homo sapiens, UniProt P08183); assay: Activity of human MDR1 expressed in pig LLC-PK cells assessed as apparent permeability from basolateral to apical side at 5 uM after 1 to 4 hrs by LC-MS/MS analysis; type: ADME, cell-based; details: LLC-PK1
T1 sequence (P08183 whole entry): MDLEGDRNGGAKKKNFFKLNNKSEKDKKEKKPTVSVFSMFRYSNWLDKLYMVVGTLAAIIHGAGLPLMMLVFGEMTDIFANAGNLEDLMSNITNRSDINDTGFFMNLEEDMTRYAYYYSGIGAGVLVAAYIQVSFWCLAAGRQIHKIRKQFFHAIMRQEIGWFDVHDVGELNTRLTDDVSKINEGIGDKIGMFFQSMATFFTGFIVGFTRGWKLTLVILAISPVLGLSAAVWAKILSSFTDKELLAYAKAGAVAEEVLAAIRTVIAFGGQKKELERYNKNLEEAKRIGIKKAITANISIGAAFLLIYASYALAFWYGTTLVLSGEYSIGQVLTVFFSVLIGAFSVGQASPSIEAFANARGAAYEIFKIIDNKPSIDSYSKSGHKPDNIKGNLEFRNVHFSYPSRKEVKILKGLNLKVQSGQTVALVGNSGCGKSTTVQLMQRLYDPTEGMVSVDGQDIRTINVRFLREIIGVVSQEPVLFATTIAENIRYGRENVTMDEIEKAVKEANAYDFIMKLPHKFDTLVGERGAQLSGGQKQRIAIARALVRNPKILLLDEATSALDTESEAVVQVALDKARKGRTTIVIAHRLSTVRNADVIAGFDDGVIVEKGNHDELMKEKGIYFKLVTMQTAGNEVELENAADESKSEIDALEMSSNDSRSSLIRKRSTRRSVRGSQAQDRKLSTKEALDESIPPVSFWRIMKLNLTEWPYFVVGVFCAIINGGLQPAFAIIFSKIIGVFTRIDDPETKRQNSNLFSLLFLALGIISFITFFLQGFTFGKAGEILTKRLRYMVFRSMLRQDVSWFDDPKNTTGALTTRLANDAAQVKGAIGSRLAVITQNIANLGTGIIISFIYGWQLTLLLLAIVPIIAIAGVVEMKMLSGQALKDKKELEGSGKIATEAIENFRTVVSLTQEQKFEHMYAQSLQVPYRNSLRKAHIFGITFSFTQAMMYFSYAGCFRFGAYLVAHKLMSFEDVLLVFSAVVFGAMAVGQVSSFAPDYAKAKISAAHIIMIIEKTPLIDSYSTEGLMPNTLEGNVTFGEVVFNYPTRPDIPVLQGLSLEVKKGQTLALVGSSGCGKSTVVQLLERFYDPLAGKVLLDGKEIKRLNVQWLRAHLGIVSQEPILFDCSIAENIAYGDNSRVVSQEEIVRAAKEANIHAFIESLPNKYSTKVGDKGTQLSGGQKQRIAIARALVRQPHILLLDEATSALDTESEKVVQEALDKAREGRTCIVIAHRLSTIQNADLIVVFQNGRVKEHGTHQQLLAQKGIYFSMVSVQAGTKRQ

MDR1 (ABCB1) [2] = target: T1, MDR1 (ABCB1); assay: Activity of human MDR1 expressed in pig LLC-PK cells assessed as efflux ratio of apparent permeability from basolateral to apical to apical to basolateral side at 5 uM after 1 to 4 hrs by LC-MS/MS analysis; type: ADME, cell-based; details: LLC-PK1
Plasma [3] = assay: Drug uptake in wild-type CF-1 mouse plasma at 5 mg/kg, po after 0.5 to 4 hrs by LC-MS/MS analysis; type: ADME, organism-based; design: dose 5 mg/kg, route oral; details: in vivo
Brain [4] = assay: Drug uptake in MDR1A-deficient CF-1 mouse brain at 5 mg/kg, po after 0.5 to 4 hrs by LC-MS/MS analysis relative to wild-type; type: ADME, organism-based; design: dose 5 mg/kg, route oral; details: in vivo
Liver [5] = assay: Drug uptake in MDR1A-deficient CF-1 mouse liver at 5 mg/kg, po after 0.5 to 4 hrs by LC-MS/MS analysis; type: ADME, organism-based; design: dose 5 mg/kg, route oral; details: in vivo
[6] = Apparent permeability from basolateral to apical side in pig LLC-PK cells at 5 uM after 1 to 4 hrs by LC-MS/MS analysis; type: ADME, cell-based, Sus scrofa; details: LLC-PK1
Plasma [7] = assay: Drug uptake in MDR1A-deficient CF-1 mouse plasma at 5 mg/kg, po after 0.5 to 4 hrs by LC-MS/MS analysis; type: ADME, organism-based; design: dose 5 mg/kg, route oral; details: in vivo
Brain [8] = assay: Drug uptake in wild-type CF-1 mouse brain at 5 mg/kg, po after 0.5 to 4 hrs by LC-MS/MS analysis; type: ADME, organism-based; design: dose 5 mg/kg, route oral; details: in vivo
[9] = Apparent permeability from apical to basolateral side in pig LLC-PK cells at 5 uM after 1 to 4 hrs by LC-MS/MS analysis; type: ADME, cell-based, Sus scrofa; details: LLC-PK1
[10] = Ratio of drug level in brain to plasma in MDR1A-deficient CF-1 mouse at 5 mg/kg, po after 0.5 to 4 hrs by LC-MS/MS analysis; type: ADME, organism-based; design: dose 5 mg/kg, route oral; details: read-out: BPR
Liver [11] = assay: Drug uptake in wild-type CF-1 mouse liver at 5 mg/kg, po after 0.5 to 4 hrs by LC-MS/MS analysis; type: ADME, organism-based; design: dose 5 mg/kg, route oral; details: in vivo
[12] = Efflux ratio of apparent permeability from basolateral to apical to apical to basolateral side in pig LLC-PK cells at 5 uM after 1 to 4 hrs by LC-MS/MS analysis; type: ADME, cell-based, Sus scrofa; details: LLC-PK1
Brain [13] = assay: Drug uptake in MDR1A-deficient CF-1 mouse brain at 5 mg/kg, po after 0.5 to 4 hrs by LC-MS/MS analysis; type: ADME, organism-based; design: dose 5 mg/kg, route oral; details: in vivo
MDR1 (ABCB1) [14] = target: T1, MDR1 (ABCB1); assay: Activity of human MDR1 expressed in pig LLC-PK cells assessed as apparent permeability from apical to basolateral side at 5 uM after 1 to 4 hrs by LC-MS/MS analysis; type: ADME, cell-based; details: LLC-PK1

With `C[C@H]1O[C@@H](O[C@H]2[C@@H](O)C[C@H](O[C@H]3[C@@H](O)C[C@H](O[C@H]4CC[C@@]5(C)[C@H](CC[C@@H]6[C@@H]5C[C@@H](O)[C@]5(C)[C@@H](C7=CC(=O)OC7)CC[C@]65O)C4)O[C@@H]3C)O[C@@H]2C)C[C@H](O)[C@@H]1O` [DIGOXIN] as the molecule, how does the Papp B→A at 5 µM (MDR1 (ABCB1) [1]) read?
Its Papp B→A at 5 µM is 6.74 ×10⁻⁶ cm/s.

What does the source list for `CC/C(=C(\c1ccc(O)cc1)c1ccc(OCCNC)cc1)c1ccccc1` [ENDOXIFEN]?
efflux ratio at 5 µM (MDR1 (ABCB1) [2]): 2.67; Drug uptake (Plasma [3]): Active; Ratio (Brain [4]): 20; Drug uptake (Liver [5]): Active; Papp B→A at 5 µM [6]: 2.15 ×10⁻⁶ cm/s; Drug uptake (Plasma [7]): Active; Drug uptake (Brain [8]): Active; Papp A→B at 5 µM [9]: 1.83 ×10⁻⁶ cm/s; Kp [10]: > 10; Drug uptake (Liver [11]): Active; Papp B→A at 5 µM (MDR1 (ABCB1) [1]): 2.77 ×10⁻⁶ cm/s; efflux ratio at 5 µM [12]: 1.07; Drug uptake (Brain [13]): Active; Papp A→B at 5 µM (MDR1 (ABCB1) [14]): 1.1 ×10⁻⁶ cm/s
